Measured values reported in the NIST ThermoML archive (doi:10.1021/je049534w).

Settings: Liquid; for speed of sound: Linear variable-path acoustic interferometer

CCCCn1cc[n+](C)c1.F[B-](F)(F)F [1-butyl-3-methylimidazolium tetrafluoroborate]
Settings	mass density [kg/m3]	speed of sound [m/s]
283.15 K, 100 kPa	–	1599.5
283.15 K, 4956 kPa	–	1612.5
283.15 K, 9954 kPa	–	1626.2
283.15 K, 20130 kPa	–	1653.1
283.15 K, 30003 kPa	–	1678.3
283.15 K, 44948 kPa	–	1714.7
283.15 K, 59705 kPa	–	1749
283.15 K, 79788 kPa	–	1793
283.15 K, 99235 kPa	–	1833.6
283.15 K, 124380 kPa	–	1882.9
283.15 K, 151416 kPa	–	1932.2
293.15 K, 100 kPa	–	1570.2
293.15 K, 5094 kPa	–	1584
293.15 K, 10075 kPa	–	1597.7
293.15 K, 20080 kPa	–	1624.4
293.15 K, 59673 kPa	–	1721
293.15 K, 98994 kPa	–	1806.1
293.15 K, 151068 kPa	–	1907.3
298.34 K, 100 kPa	1205.03	–
298.34 K, 700 kPa	1205.32	–
298.34 K, 5280 kPa	1207.44	–
298.34 K, 10600 kPa	1209.87	–
298.34 K, 15920 kPa	1212.24	–
298.34 K, 20540 kPa	1214.26	–
298.34 K, 25000 kPa	1216.18	–
298.34 K, 30710 kPa	1218.62	–
298.34 K, 35190 kPa	1220.47	–
298.34 K, 40660 kPa	1222.73	–
298.34 K, 44370 kPa	1224.21	–
298.34 K, 49660 kPa	1226.32	–
298.34 K, 54340 kPa	1228.16	–
298.34 K, 59230 kPa	1230.05	–
303.15 K, 100 kPa	–	1544.9
303.15 K, 5080 kPa	–	1558.6
303.15 K, 10091 kPa	–	1572.5
303.15 K, 20063 kPa	–	1599.5
303.15 K, 59767 kPa	–	1697
303.15 K, 99007 kPa	–	1782.6
303.15 K, 124609 kPa	–	1834
303.23 K, 100 kPa	1201.29	–
303.23 K, 8780 kPa	1205.3	–
303.23 K, 11170 kPa	1206.4	–
303.23 K, 15230 kPa	1208.22	–
303.23 K, 20270 kPa	1210.43	–
303.23 K, 24890 kPa	1212.44	–
303.23 K, 30670 kPa	1214.92	–
303.23 K, 34770 kPa	1216.66	–
303.23 K, 40020 kPa	1218.85	–
303.23 K, 44310 kPa	1220.61	–
303.23 K, 49500 kPa	1222.73	–
303.23 K, 54490 kPa	1224.75	–
303.23 K, 59820 kPa	1226.85	–
313.01 K, 100 kPa	1194.59	–
313.01 K, 4130 kPa	1196.19	–
313.01 K, 10180 kPa	1198.82	–
313.01 K, 15650 kPa	1201.26	–
313.01 K, 21300 kPa	1203.75	–
313.01 K, 24580 kPa	1205.19	–
313.01 K, 30110 kPa	1207.62	–
313.01 K, 35390 kPa	1209.88	–
313.01 K, 44700 kPa	1213.84	–
313.01 K, 49720 kPa	1215.92	–
313.01 K, 54430 kPa	1217.91	–
313.01 K, 59450 kPa	1219.95	–
313.15 K, 100 kPa	–	1525.2
313.15 K, 5091 kPa	–	1539.3
313.15 K, 10185 kPa	–	1554
313.15 K, 20070 kPa	–	1581
313.15 K, 59719 kPa	–	1679.3
313.15 K, 99014 kPa	–	1765.8
313.15 K, 123975 kPa	–	1816.6
313.15 K, 151204 kPa	–	1870
322.85 K, 100 kPa	1187.85	–
322.85 K, 3730 kPa	1189.5	–
322.85 K, 6220 kPa	1190.68	–
322.85 K, 10020 kPa	1192.47	–
322.85 K, 14870 kPa	1194.68	–
322.85 K, 20450 kPa	1197.2	–
322.85 K, 25400 kPa	1199.38	–
322.85 K, 31090 kPa	1201.87	–
322.85 K, 34850 kPa	1203.51	–
322.85 K, 41130 kPa	1206.23	–
322.85 K, 44880 kPa	1207.85	–
322.85 K, 49830 kPa	1209.95	–
322.85 K, 54520 kPa	1211.91	–
322.85 K, 59920 kPa	1214.2	–
323.15 K, 100 kPa	–	1503.4
323.15 K, 4999 kPa	–	1517.8
323.15 K, 10202 kPa	–	1533.4
323.15 K, 20046 kPa	–	1561.4
323.15 K, 59977 kPa	–	1662.1
323.15 K, 99014 kPa	–	1748.8
323.15 K, 123945 kPa	–	1798.9
323.15 K, 151374 kPa	–	1853.2
332.73 K, 100 kPa	1181.05	–
332.73 K, 4130 kPa	1182.92	–
332.73 K, 6350 kPa	1183.98	–
332.73 K, 11210 kPa	1186.3	–
332.73 K, 15220 kPa	1188.15	–
332.73 K, 20540 kPa	1190.55	–
332.73 K, 25280 kPa	1192.7	–
332.73 K, 30760 kPa	1195.16	–
332.73 K, 35080 kPa	1197.05	–
332.73 K, 40110 kPa	1199.23	–
332.73 K, 44860 kPa	1201.24	–
332.73 K, 49840 kPa	1203.35	–
332.73 K, 54760 kPa	1205.7	–
332.73 K, 59130 kPa	1207.2	–
